Experimental findings from US20240245675A1, “PROTEIN SECRETION INHIBITORS” (Gate Bioscience, Inc., priority 2021, published 2024) are described below.

Structures are written as SMILES.

For one experiment, the target named is PDCD1 Construct (signal peptide + 10 amino acids of Programmed Cell Death Receptor 1 fused to HaloTag-HiBit) (Homo sapiens, UniProt P61619). The experiment can be described thus: HiBit assay, secretion of SP-HaloTag-HiBit fusion protein, PDCD1 construct. Format: cell-based. The conditions noted are these: T-REx-293 cells, doxycycline-induced, Nano-Glo HiBiT Extracellular Detection.
Sequence of PDCD1 Construct (signal peptide + 10 amino acids of Programmed Cell Death Receptor 1 fused to HaloTag-HiBit) (P61619 whole entry, the tested form may be a part): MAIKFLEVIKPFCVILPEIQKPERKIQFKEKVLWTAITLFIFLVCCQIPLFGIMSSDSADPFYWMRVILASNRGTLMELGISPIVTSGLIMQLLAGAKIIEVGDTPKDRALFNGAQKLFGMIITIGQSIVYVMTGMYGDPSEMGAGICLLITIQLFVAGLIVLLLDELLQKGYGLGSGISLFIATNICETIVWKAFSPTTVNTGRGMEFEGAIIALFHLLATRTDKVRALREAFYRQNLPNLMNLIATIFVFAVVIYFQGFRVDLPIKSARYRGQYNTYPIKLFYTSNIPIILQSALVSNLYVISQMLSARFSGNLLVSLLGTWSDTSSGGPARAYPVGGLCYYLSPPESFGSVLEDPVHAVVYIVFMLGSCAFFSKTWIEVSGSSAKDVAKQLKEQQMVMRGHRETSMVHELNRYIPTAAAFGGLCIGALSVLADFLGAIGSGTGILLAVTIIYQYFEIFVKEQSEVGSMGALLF
As to `CC(C)OC(C)(C)c1csc(NC(=O)c2nccn2CCc2ccncc2)n1` [Compound 44], the IC50 was greater than 30 µM.

For the molecule `CC(C)OC(C)(C)c1csc(Nc2nccc3ccn(Cc4ccncc4)c23)n1` [Compound 25, 4-(2-isopropoxypropan-2-yl)-N-(1-(pyridin-4-ylmethyl)-1H-pyrrolo[2,3-c]pyridin-7-yl)thiazol-2-amine], the IC50 lay within 5 to 10 µM.

Consider `CC(C)OC(C)(C)c1csc(NC(=O)c2ccnn2CCc2ccncc2)n1` [Compound 24, N-(4-(2-isopropoxypropan-2-yl)thiazol-2-yl)-1-(2-(pyridin-4-yl)ethyl)-1H-pyrazole-5-carboxamide], for which the IC50 was greater than 30 µM.

In the case of `O=C(Nc1nc(/C=C/c2ccccc2)ns1)c1cc(F)cn1Cc1ccncc1` [Compound 49, (E)-4-fluoro-1-(pyridin-4-ylmethyl)-N-(3-styryl-1,2,4-thiadiazol-5-yl)-1H-pyrrole-2-carboxamide], the IC50 is less than 5 µM.

For the molecule `c1ccc(N2CCC[C@@H]2c2csc(Nc3ncccc3OCc3ccncc3)n2)cc1` [Compound 8, (R)-4-(1-phenylpyrrolidin-2-yl)-N-(3-(pyridin-4-ylmethoxy)pyridin-2-yl)thiazol-2-amine], the IC50 lay within 5 to 10 µM.

Turning to `Cc1cccc(Nc2nc(-c3ccc(-c4cccnc4)cc3)cs2)n1` [Compound 38], the IC50 was greater than 30 µM.

For `CC(C)(C)c1nsc(NC(=O)c2cccn2Cc2ccncc2)n1` [Compound 50], the concentration for half-maximal inhibition (IC50) was less than 5 µM.

For the molecule `CC(C)(C)C1CNC(NC(=O)c2cccn2Cc2ccncc2)=N1` (centres unmarked) [Compound 43], the IC50 was less than 5 µM.

As to `CN1CCN(c2nsc(NC(=O)c3cc(F)cn3Cc3ccncc3)n2)CC1` [Compound 48, 4-fluoro-N-(3-(4-methylpiperazin-1-yl)-1,2,4-thiadiazol-5-yl)-1-(pyridin-4-ylmethyl)-1H-pyrrole-2-carboxamide], the IC50 was greater than 30 µM.

For the molecule `O=C(Nc1nc(-c2ccccc2)ns1)c1cccn1Cc1ccncc1` [Compound 37], the IC50 is less than 5 µM.

In another experiment the target is PRP Construct (signal peptide + 10 amino acids of Prion protein fused to HaloTag-HiBit) (Homo sapiens, UniProt P61619). The experiment can be described thus: cell-based.
Sequence of PRP Construct (signal peptide + 10 amino acids of Prion protein fused to HaloTag-HiBit) (P61619 whole entry, looked up, the tested form may be a part): as the sequence (P61619 whole entry, the tested form may be a part) above
Details: not given
As to `O=C(CCOc1ccncc1)Nc1nc([C@H]2CCCN2c2ccccc2)cs1` [Compound 2, (R)—N-(4-(1-phenylpyrrolidin-2-yl)thiazol-2-yl)-3-(pyridin-4-yloxy)propanamide], the IC50 is greater than 30 µM.

On to `CC(C)OC(C)(C)c1csc(NC(=O)NCc2ccncc2)n1` [Compound 17, 1-(4-(2-isopropoxypropan-2-yl)thiazol-2-yl)-3-(pyridin-4-ylmethyl)urea], for which the IC50 was greater than 30 µM.

Turning to `CN(CCc1ccncc1)C(=O)Nc1nc([C@H]2CCCN2c2ccccc2)cs1` [Compound 6, (R)-1-methyl-3-(4-(1-phenylpyrrolidin-2-yl)thiazol-2-yl)-1-(2-(pyridin-4-yl)ethyl)urea], the IC50 was greater than 30 µM.

As to `O=C(c1ccccc1)c1ccc(Nc2nc([C@H]3CCCN3c3ccccc3)cs2)cc1` [Compound 13, (R)-phenyl(4-((4-(1-phenylpyrrolidin-2-yl)thiazol-2-yl)amino)phenyl)methanone], the IC50 is greater than 30 µM.

For `CN1CCCC1c1csc(Nc2ncccn2)n1` (centres unmarked) [Compound 47], the IC50 is greater than 30 µM.

Consider `CC(C)OC(C)(C)c1csc(NC(=O)N(C)Cc2ccncc2)n1` [Compound 19, 3-(4-(2-isopropoxypropan-2-yl)thiazol-2-yl)-1-methyl-1-(pyridin-4-ylmethyl)urea], for which the IC50 is greater than 30 µM.

Take `CC(C)OC(C)(C)c1csc(NC(=O)OCCc2ccncc2)n1` [Compound 21, 2-(pyridin-4-yl)ethyl (4-(2-isopropoxypropan-2-yl)thiazol-2-yl)carbamate]: the half-maximal inhibitory concentration (IC50) is greater than 30 µM.

For `CC(C)OC(C)(C)c1csc(NC(=O)N(C)CCc2ccncc2)n1` [Compound 20, 3-(4-(2-isopropoxypropan-2-yl)thiazol-2-yl)-1-methyl-1-(2-(pyridin-4-yl)ethyl)urea], the IC50 is greater than 30 µM.

For `CC(C)OC(C)(C)c1csc(Nc2nccc3ccn(Cc4ccncc4)c23)n1` [Compound 25, 4-(2-isopropoxypropan-2-yl)-N-(1-(pyridin-4-ylmethyl)-1H-pyrrolo[2,3-c]pyridin-7-yl)thiazol-2-amine], the 50% inhibitory concentration (IC50) fell in the range of 10 to 30 µM.

With `c1ccc(N2CCC[C@@H]2c2csc(Nc3ncccc3OCc3ccncc3)n2)cc1` [Compound 8, (R)-4-(1-phenylpyrrolidin-2-yl)-N-(3-(pyridin-4-ylmethoxy)pyridin-2-yl)thiazol-2-amine], the IC50 was less than 5 µM.

`CC(C)OC(C)(C)c1csc(NC(=O)Nc2ccccc2Oc2ccccc2)n1` [Compound 18, 1-(4-(2-isopropoxypropan-2-yl)thiazol-2-yl)-3-(2-phenoxyphenyl)urea]: the half-maximal inhibitory concentration (IC50) is greater than 30 µM.

For the molecule `O=C(Nc1ccc(C(=O)c2ccccc2)cc1)Nc1nc([C@H]2CCCN2c2ccccc2)cs1` [Compound 23, (R)-1-(4-benzoylphenyl)-3-(4-(1-phenylpyrrolidin-2-yl)thiazol-2-yl)urea], the IC50 was greater than 30 µM.

Regarding `CC(C)OC(C)(C)c1csc(NC(=O)[C@@H](C)OCc2ccncc2)n1` [Compound 14, (R)—N-(4-(2-isopropoxypropan-2-yl)thiazol-2-yl)-2-(pyridin-4-ylmethoxy)propanamide], the IC50 was greater than 30 µM.

In the case of `O=C(Nc1nc([C@H]2CCCN2c2ccccc2)cs1)OCCc1ccncc1` [Compound 1, 2-(pyridin-4-yl)ethyl (R)-(4-(1-phenylpyrrolidin-2-yl)thiazol-2-yl)carbamate], the half-inhibitory concentration (IC50) is greater than 30 µM.

For `Cc1ccc(Nc2nc(C3CCCN3C)cs2)nc1` (centres unmarked) [Compound 46], the IC50 is greater than 30 µM.

In the case of `CC(C)(C)c1csc(Nc2ncccc2CCc2ccncc2)n1` [Compound 39], the IC50 lay within 10 to 30 µM.

Take `CC(C)OC(C)(C)c1csc(Nc2ccc(C(=O)c3ccccc3)cc2)n1` [Compound 22, (4-((4-(2-isopropoxypropan-2-yl)thiazol-2-yl)amino)phenyl)(phenyl)methanone]: the IC50 is greater than 30 µM.

Regarding `Cc1ccc(Nc2nc(C3CCCN3Cc3cnc[nH]3)cs2)nc1` (centres unmarked) [Compound 45], the IC50 was greater than 30 µM.

Consider `CC(C)OC(C)(C)c1csc(NC(=O)[C@H](C)OCc2ccncc2)n1` [Compound 15, (S)—N-(4-(2-isopropoxypropan-2-yl)thiazol-2-yl)-2-(pyridin-4-ylmethoxy)propanamide], for which the IC50 is greater than 30 µM.

For the molecule `CC(C)(C)C1CNC(NC(=O)c2cccn2Cc2ccncc2)=N1` (centres unmarked) [Compound 43], the IC50 was in the range of 5 to 10 µM.

Turning to `CC(CNc1ccncc1)C(=O)Nc1nc([C@H]2CCCN2c2ccccc2)cs1` (stereo partly drawn) [Compound 7, 2-methyl-N-(4-((R)-1-phenylpyrrolidin-2-yl)thiazol-2-yl)-3-(pyridin-4-ylamino)propanamide], the IC50 lay within 10 to 30 µM.

For the molecule `C[C@H](OCc1ccncc1)C(=O)Nc1nc([C@H]2CCCN2c2ccccc2)cs1` [Compound 5, (S)—N-(4-((R)-1-phenylpyrrolidin-2-yl)thiazol-2-yl)-2-(pyridin-4-ylmethoxy)propanamide], the IC50 was 5 to 10 µM.

In the case of `C[C@@H](OCc1ccncc1)C(=O)Nc1nc([C@H]2CCCN2c2ccccc2)cs1` [Compound 4, (R)—N-(4-((R)-1-phenylpyrrolidin-2-yl)thiazol-2-yl)-2-(pyridin-4-ylmethoxy)propanamide], the IC50 lay within 10 to 30 µM.

Take `O=C(NCc1ccncc1)Nc1nc([C@H]2CCCN2c2ccccc2)cs1` [Compound 11, (R)-1-(4-(1-phenylpyrrolidin-2-yl)thiazol-2-yl)-3-(pyridin-4-ylmethyl)urea]: the IC50 was greater than 30 µM.

As to `O=C(Nc1nc(-c2ccccc2)ns1)c1cccn1Cc1ccncc1` [Compound 37], the IC50 was in the range of 5 to 10 µM.
